# Laboratory results taken from ChEMBL document CHEMBL1201862, “PubChem BioAssay data set” (2004).
#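 Briefly, cells in 96-well plates were exposed to five compound concentrations for 48 h, and endpoints were estimated by linear interpolation. Abbreviation: GI50, concentration required for 50% inhibition of growth.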 Activity calls are given as the source filed them. Cut-off read from the data, not from the text of the source: active = GI50 up to about 1.1 µM and inactive = higher. Where a SMILES comes first, the peptide text is derived from it. [ ]: non-standard residue; d: D form. The star is where a group is joined. NMeF = CN[CH](Cc1ccccc1)C(=O)O; NMeV = CN[CH](C(=O)O)C(C)C; Boc = CC(C)(C)OC(=O)*; OBn = c1ccc(CO*)cc1
# How the values were obtained:
# Assay in all cases: growth of human tumour cells (NCI), 48 h
# HOP-18 = tested on: HOP-18
# DMS-273 = tested on: DMS-273
# XF498 = tested on: XF498
# RXF 631 = tested on: RXF 631
# M19-MEL = tested on: M19-MEL
# DMS-114 = tested on: DMS-114
# DLD-1 = tested on: DLD-1
# SNB-78 = tested on: SNB-78
# KM-20L2 = tested on: KM-20L2
Compound,GI50 (HOP-18),GI50 (DMS-273),GI50 (XF498),GI50 (RXF 631),GI50 (M19-MEL),GI50 (DMS-114),GI50 (DLD-1),GI50 (SNB-78),GI50 (KM-20L2)
C[C@H]1CC(=O)C2=CCCC3(SCCCS3)[C@@H]2[C@H]1CO,> 100 µM (inactive),> 100 µM (inactive),> 100 µM (inactive),> 100 µM (inactive),78.5 µM (inactive),> 100 µM (inactive),> 100 µM (inactive),,
COc1ccc(NC(=O)CC2SC(Nc3ccc(Cl)cc3C)=NC2=O)c([N+](=O)[O-])c1 (configuration not stated),,> 100 µM (inactive),,> 100 µM (inactive),> 100 µM (inactive),> 100 µM (inactive),> 100 µM (inactive),> 100 µM (inactive),> 100 µM (inactive)
O=P1(Oc2ccccc2)C(c2ccccc2)C(c2ccccc2)=NN1c1ccccc1 (configuration not stated),44.1 µM (inactive),30.3 µM (inactive),43.2 µM (inactive),35.4 µM (inactive),23.1 µM (inactive),19.5 µM (inactive),18.3 µM (inactive),46.5 µM (inactive),20.7 µM (inactive)
CC(C)OP(=O)(OC(C)C)/C(=N/Nc1ccccc1[N+](=O)[O-])NCCN/C(=N\Nc1ccccc1[N+](=O)[O-])P(=O)(OC(C)C)OC(C)C,,35.2 µM (inactive),,,34.9 µM (inactive),31.7 µM (inactive),34 µM (inactive),,24.9 µM (inactive)
N#C/C(=C\c1ccc2ccccc2c1)C(=O)c1ccccc1,> 100 µM (inactive),> 100 µM (inactive),> 100 µM (inactive),,> 87.9 µM (inactive),> 100 µM (inactive),> 100 µM (inactive),> 100 µM (inactive),> 100 µM (inactive)
COc1cc(/C=C\c2ccc(C)cc2)cc(OC)c1OC,,0.0012 µM (active),0.00033 µM (active),,0.00197 µM (active),0.000266 µM (active),0.00237 µM (active),0.0001 µM (active),0.000117 µM (active)
Cc1cn(C2OC(C)(CO)C(O)C2O)c(=O)[nH]c1=O (configuration not stated),> 100 µM (inactive),> 100 µM (inactive),,,> 100 µM (inactive),> 100 µM (inactive),> 100 µM (inactive),,
C=C(NC(=O)C(=C)NC(=O)c1csc(C2=NC3c4csc(n4)C4NC(=O)c5csc(n5)C(C(C)(O)C(C)O)NC(=O)C5CSC(=N5)/C(=C/C)NC(=O)C(C(C)O)NC(=O)c5csc(n5)C3(CC2)NC(=O)C(C)NC(=O)C(=C)NC(=O)C(C)NC(=O)C(C(C)CC)NC2C=Cc3c(C(C)O)cc(nc3C2O)C(=O)OC4C)n1)C(N)=O (configuration not stated),2.72 µM (inactive),1.37 µM (inactive),0.355 µM (active),3.61 µM (inactive),1.37 µM (inactive),2.72 µM (inactive),1.76 µM (inactive),2.54 µM (inactive),2.84 µM (inactive)
O=C(OC1CCC(=C2SCCCS2)[C@H]1C1SCCCS1)c1ccccc1 (some centres not stated),,> 100 µM (inactive),,> 100 µM (inactive),> 100 µM (inactive),89.5 µM (inactive),> 100 µM (inactive),,> 100 µM (inactive)
N=C(N)NS(=O)(=O)c1ccc(NC(=O)c2ccc(Cl)c3c(Nc4ccc(S(=O)(=O)N=C(N)N)cc4)c4ccccc4nc23)cc1,68.1 µM (inactive),> 100 µM (inactive),,> 100 µM (inactive),49.8 µM (inactive),> 100 µM (inactive),49.2 µM (inactive),45 µM (inactive),> 100 µM (inactive)
[O-][n+]1c2c([n+]([O-])c3ccccc31)CCCCCCCCCC2,,> 100 µM (inactive),> 100 µM (inactive),,> 100 µM (inactive),,> 100 µM (inactive),> 100 µM (inactive),17.5 µM (inactive)
O=Cc1ccccc1COC(=O)c1cc(C(=O)OCc2ccccc2C=O)c(C(=O)OCc2ccccc2C=O)cc1C(=O)OCc1ccccc1C=O,> 100 µM (inactive),30.3 µM (inactive),> 100 µM (inactive),,> 100 µM (inactive),49.4 µM (inactive),> 100 µM (inactive),40.7 µM (inactive),> 100 µM (inactive)
COC1=C2C[C@H](O)C(C)C[C@@]2(OC)OC1=O (some centres not stated),,> 100 µM (inactive),> 100 µM (inactive),> 100 µM (inactive),> 100 µM (inactive),,> 100 µM (inactive),> 100 µM (inactive),
O=c1ncccn1C1OC(CO)C(O)C1O (configuration not stated),> 100 µM (inactive),> 100 µM (inactive),,,> 100 µM (inactive),> 100 µM (inactive),> 100 µM (inactive),> 100 µM (inactive),> 100 µM (inactive)
O=C1C2c3[nH]c4ccccc4c3C3CCCCC3C2C(=O)N1c1ccccc1 (configuration not stated),37.2 µM (inactive),85.3 µM (inactive),,> 100 µM (inactive),> 100 µM (inactive),> 100 µM (inactive),> 100 µM (inactive),38.3 µM (inactive),
O=c1c2c(c1=O)-c1ccccc1CN2,,> 100 µM (inactive),20.6 µM (inactive),,> 100 µM (inactive),> 100 µM (inactive),> 100 µM (inactive),> 100 µM (inactive),> 100 µM (inactive)
NC1=NS(=O)(=O)Nc2nc(-c3ccc(Cl)cc3)[nH]c21,> 100 µM (inactive),> 100 µM (inactive),,,> 100 µM (inactive),> 100 µM (inactive),> 100 µM (inactive),,> 100 µM (inactive)
CC(=O)O[C@]12CCCC1C1(O)C(O)CCCC12 (some centres not stated),> 100 µM (inactive),> 100 µM (inactive),> 100 µM (inactive),,> 100 µM (inactive),> 100 µM (inactive),,> 100 µM (inactive),> 100 µM (inactive)
c1ccc(CNn2nnc3ccccc32)cc1,,> 100 µM (inactive),> 100 µM (inactive),,> 100 µM (inactive),> 100 µM (inactive),> 100 µM (inactive),> 100 µM (inactive),> 100 µM (inactive)
O=C(O)c1ccc(C2C3C=CC(C3)C2[N+](=O)[O-])cc1 (configuration not stated),,> 100 µM (inactive),> 100 µM (inactive),> 100 µM (inactive),> 100 µM (inactive),> 100 µM (inactive),> 100 µM (inactive),> 100 µM (inactive),> 100 µM (inactive)
CC(C)C(NC(=O)OC(C)(C)C)C(=O)N(C)C(Cc1ccccc1)C(=O)N(C)C(C(=O)N(C)C(C(=O)OCc1ccccc1)C(C)C)C(C)C (configuration not stated) (Boc-V[NMeF][NMeV][NMeV]-OBn; configuration not given here),,72.8 µM (inactive),19.4 µM (inactive),,> 100 µM (inactive),62.5 µM (inactive),,,> 100 µM (inactive)
C[C@@](O)(/C=C/[C@H]1CC=CC(=O)O1)[C@@H](C[C@@H](O)\C=C/C=C\C=C\CO)OP(=O)(O)O [FOSTRIECIN SODIUM],,6.19 µM (inactive),52.5 µM (inactive),,4.17 µM (inactive),13 µM (inactive),13.2 µM (inactive),15 µM (inactive),1.03 µM (active)
O=C(Nc1ccc(Cl)cc1C(F)(F)F)C(=O)C1CCCS1(=O)=O (configuration not stated),> 100 µM (inactive),,> 100 µM (inactive),,> 100 µM (inactive),> 100 µM (inactive),> 100 µM (inactive),> 100 µM (inactive),> 100 µM (inactive)
COc1ccc([C@@H]2CC(=O)NCCCNCCCCNCCCN2)cc1,59.6 µM (inactive),> 100 µM (inactive),> 100 µM (inactive),,> 100 µM (inactive),> 100 µM (inactive),> 100 µM (inactive),> 100 µM (inactive),> 100 µM (inactive)
